This is an account of results in US6492410B1, “Combinations of protein farnesyltransferase and HMG CoA reductase inhibitors and their use to treat cancer” (Warner-Lambert Company, priority 1998, dated 2002).

Assay [1] concerns human lung carcinoma with K-ras mutation and p53 deletion. Particulars: nude mice; cited from earlier work.
Assay [2] has as its system EJ-1 human bladder carcinoma. As to conditions: 100 mg/kg; EJ-1 xenograft in nude mice; cited from earlier work.
Assay [3] deals with HT1080 human fibrosarcoma. Particulars: 100 mg/kg; HT1080 xenograft in nude mice; cited from earlier work.
The subject of assay [4] is human colon carcinoma xenografts. As to conditions: 100 mg/kg; human colon carcinoma xenograft in nude mice; cited from earlier work. In general terms: In xenograft studies the graft and the host belong to different species.
In assay [5] the test system is hepatocellular, pancreatic, and central nervous system tumors. Particulars: in vitro and in animal models; cited from earlier work.
The next assay concerns HT-29 Colon. Nature of the assay: cells. As to conditions: Homo sapiens, HT-29, 72 h, read-out: IC50 (concentration at which growth (cell#) is reduced by 50%). The procedure: (§1) A proliferation assay was performed to ascertain the toxicity of a combination of a famesyl protein transferase and lovastatin at various concentrations to a number of cancerous cell lines. The assay was also performed to ascertain the toxicity of the farnesyl protein transferase alone as a comparison against the combination.
(§2) Cell lines (Panc-1, Colon26, HT-29 Colon, H460 Lung, H-ras NIH 3T3 fibroblast, P388/ADR leukemia, and P388/S leukemia) were set up at various starting concentrations in 24- or 12-well dishes. Suspension cells were treated immediately; attached monolayer cells were allowed to attach for 24 hours prior to treatment. The cells were treated in one series of tests with lovastatin and solvent (DMSO); in another series of tests with a combination of lovastatin, solvent (DMSO) and the farnesyltransferase inhibitor, (S)-[1-{(4-benzyloxy-benzyl)-[(2-methyl-2-phenyl-propyl carbamoyl)-methyl]-carbamoyl}-2-(3H1-imidazol-4-yl)-ethyl]-carbamic acid benzyl ester (Compound A); and in a third series of cells were treated with only the farnesyltransferase inhibitor. After 72 hours of treatment, the cells (growing in 1 mL of medium) are trypsinized with warm (37 degrees celsius) trypsin-EDTA (0.5 mL for 1-2 minutes), agitated, rescued with 0.5 mL of warm (37) medium, then diluted in […] Isoton (isotonic saline) for a final volume of 10 mL, 0.5 mL are then counted on a Coulter cell counter.
(§3) The data for lovastatin treatment alone is relative to the DMSO-treated controls; the data for combination treatment is relative to the PFT inhibitor treatment alone samples.

The test system of another assay is Colon26. Put plainly: cells. As to conditions: Mus musculus, Colon 26, 72 h, read-out: IC50 (concentration at which growth (cell#) is reduced by 50%). The procedure:
as §1, §2, §3

A further assay concerns Panc-1. Nature of the assay: cells. As to conditions: Homo sapiens, PANC-1, 72 h, read-out: IC50 (concentration at which growth (cell#) is reduced by 50%). As to the method: as §1, §2, §3
A further assay has as its system P388/S leukemia. Nature of the assay: cells. Particulars: Mus musculus, 72 h, read-out: IC50 (concentration at which growth (cell#) is reduced by 50%). The procedure:
as §1, §2, §3

A further assay relates to H460 Lung. Nature of the assay: cells. As to conditions: Homo sapiens, NCI-H460, 72 h, read-out: IC50 (concentration at which growth (cell#) is reduced by 50%). The procedure:
as §1, §2, §3

The subject of the next assay is P388/ADR leukemia. Put plainly: cells. As to conditions: Mus musculus, 72 h, read-out: IC50 (concentration at which growth (cell#) is reduced by 50%). The procedure:
as §1, §2, §3

The test system of another assay is H-ras NIH 3T3 fibroblast. Put plainly: cells. As to conditions: Mus musculus, NIH3T3, 72 h, read-out: IC50 (concentration at which growth (cell#) is reduced by 50%). As to the method:
as §1, §2, §3

Assay [6] deals with mammary and salivary carcinomas. As to conditions: daily administration; ras transgenic mice; cited from earlier work.

As for `CSCC[C@H](NC(=O)c1ccc(NC[C@@H](N)CS)cc1-c1ccccc1)C(=O)O` [FT1276], the tumor growth entry in assay [1] is “selectively block tumor growth”.
In the case of `COC(=O)[C@H](CCSC)NC(=O)[C@H](/C=C\[C@@H](/C=C/[C@@H](N)CS)C(C)C)Cc1ccccc1` [B 1086], the tumor growth entry in assay [2], in [3] and in [4] was “inhibit tumor growth” in each case.
For the compound `CC[C@H](C)C(=O)O[C@H]1C[C@@H](C)C=C2C=C[C@H](C)[C@H](CC[C@@H]3C[C@@H](O)CC(=O)O3)[C@H]21` [Lovastatin, lovastatin], the tumor growth result in assay [5] is given as “selectively inhibited tumor growth”. The IC50 with HT-29 Colon was determined as 11.4 µM; with Colon26, 1.2 µM; with Panc-1, 18.8 µM; with P388/S leukemia it was 4 µM; with H460 Lung, 5.5 µM; in the assay on P388/ADR leukemia, 10.7 µM. Moreover, the IC50 with H-ras NIH 3T3 fibroblast came out at 17.4 µM.
Consider `CC[C@H](C)[C@@H](CO[C@@H](Cc1ccccc1)C(=O)N[C@@H](CCS(C)(=O)=O)C(=O)OC(C)C)NC[C@@H](N)CS` [L-744,832], for which the tumor regression entry in assay [6] was “caused tumor regression”.
